Article PMC9088073, “Discovery of 2-Phenylquinolines with Broad-Spectrum Anti-coronavirus Activity” (ACS Medicinal Chemistry Letters, 2022)
Read-outs that look alike come from different tables or passages of the source. Marks after values point to notes of the source that are not given here.

Legend:
in vitro [1] = conditions: human
in vitro [2] = conditions: chlorocebus sabaeus
[3] = test system: autophagy (LC3-II puncta) in VeroE6 cells; experiment: Autophagy inhibition assay, LC3-II immunofluorescence in VeroE6 cells; format: cell-based; conditions: for effect on autophagy (LC3-II accumulation), in words: 10 μM, 4 h, compared to CQ
HCoV-OC43 = experiment: microbe, parasite or virus in culture; format: cell-based; conditions: Betacoronavirus 1, OC43, HEL 299, read-out: HCoV-OC43 EC50
SARS-CoV-2 = experiment: microbe, parasite or virus in culture; format: cell-based
HCoV-229E = experiment: microbe, parasite or virus in culture; format: cell-based; conditions: Human coronavirus 229E, HEL 299, read-out: HCoV-229E EC50
VeroE6 cells = conditions: uninfected VeroE6 cells, MTS assay; mean ± SD of duplicate experiments
SARS-CoV-2 nsp12 RdRp = SARS-CoV-2 nsp12 RdRp (Severe acute respiratory syndrome coronavirus 2, UniProt P0DTD1); experiment: SARS-CoV-2 nsp12 RdRp activity, fluorescent-based assay; format: biochemical; conditions: in the presence of the highest concentration of tested compound (30 μM); read-out: RdRp percentage of control
[4] = target: SARS-CoV-2 nsp13 helicase (Severe acute respiratory syndrome coronavirus 2, UniProt P0DTD1); experiment: biochemical; format: biochemical; conditions: for IC50: SARS-CoV-2 nsp13 helicase-associated activity, read-out: helicase unwinding IC50; for remaining activity at 30 µM: in the presence of the highest concentration of tested compound (30 μM), read-out: helicase unwinding percentage of control
SARS-CoV-2 nsp13 ATPase = SARS-CoV-2 nsp13 ATPase (Severe acute respiratory syndrome coronavirus 2, UniProt P0DTD1); format: biochemical; conditions: for IC50: read-out: helicase ATPase IC50
[5] = Severe acute respiratory syndrome coronavirus 2, […], mean ± SD of duplicate experiments, read-out: Anti-SARS-CoV-2 activity EC50
[6] = Severe acute respiratory syndrome coronavirus 2, read-out: Anti-SARS-CoV-2 activity EC50, primary screening
[7] = […], mean ± SD of duplicate experiments
[8] = SARS-CoV-2 nsp13 ATPase-associated activity
[9] = in the presence of the highest concentration of tested compound (30 μM; 3 μM for SSYA10-001)

Structure (SMILES)	CC50 (in vitro [1]) [µM]	CC50 (in vitro [2]) [µM]	EC50 (HCoV-OC43) [µM]	EC50 (SARS-CoV-2; [5]) [µM]	EC50 (HCoV-229E) [µM]	other results
CCN(CC)CCCC(C)Nc1ccnc2cc(Cl)ccc12 (stereo not drawn) [Chloroquine, chloroquine, reference compound]	33.6 ± 1.3	83.4 ± 4.2	< 0.8	–	–	increase in the intensity of the cytoplasmic LC3 puncta ([3]; 10 μM for 4 h): 9 fold
CCCOc1ccc(-c2cc(O)c3ccccc3n2)cc1 [Compound 1]	–	–	–	> 100	–	Anti-SARS-CoV-2 activity EC50, primary screening (SARS-CoV-2): completely inactive
CCCOc1ccc(-c2cc(OCCN(CC)CC)c3ccccc3n2)cc1 [Compound 1a]	–	21.2 ± 4.2	–	6.5 ± 0.05	–	EC50 (SARS-CoV-2; [6]): 6 µM
CCCOc1ccc(-c2cc(OCCCN(C)C)c3ccccc3n2)cc1 [Compound 1b]	–	–	–	> 100	–	–
CCCOc1ccc(-c2cc(OCCN(Cc3ccccc3)Cc3ccccc3)c3ccccc3n2)cc1 [Compound 1c]	–	–	–	> 100	–	–
CCCOc1ccc(-c2cc(OC3CC4CCN3CC4)c3ccccc3n2)cc1 (stereo not drawn) [Compound 1d]	–	–	–	> 100	–	–
CCCOc1ccc(-c2cc(OCc3ccccn3)c3ccccc3n2)cc1 [Compound 1e]	–	–	–	> 100	–	–
CCCOc1ccc(-c2cc(OCCN3CCN(Cc4ccccc4)CC3)c3ccccc3n2)cc1 [Compound 1f]	> 100	> 100	92.3 ± 11	11.9 ± 5.5	61.3 ± 32.2	VeroE6 cells CC50 (VeroE6 cells): lacked cytotoxicity
CCCOc1ccc(-c2cc(OCCN3CCc4cc(OC)c(OC)cc4C3)c3ccccc3n2)cc1 [Compound 1g]	–	–	–	> 100	–	–
CCCOc1ccc(-c2cc(OCCn3cccc3)c3ccccc3n2)cc1 [Compound 1h]	–	–	–	> 100	–	–
CCCOc1ccc(-c2cc(OCCN(CC)CC)c3c(OC)cccc3n2)cc1 [Compound 2a]	–	–	–	> 100	–	–
CCCOc1ccc(-c2cc(OCCCN(C)C)c3cc(OC)ccc3n2)cc1 [Compound 3b]	–	–	–	> 100	–	–
CCCOc1ccc(-c2cc(OCCN3CCc4cc(OC)c(OC)cc4C3)c3ccc(OC)cc3n2)cc1 [Compound 4g]	–	–	–	> 40	–	–
CCCOc1ccc(-c2cc(OCCN(CC)CC)c3cccc(OC)c3n2)cc1 [Compound 5a]	10.4 ± 0.8	> 100	0.6 ± 0.1	9.1 ± 3.05	1.3 ± 0.9	–
CCCOc1ccc(-c2cc(OCCN3CCc4cc(OC)c(OC)cc4C3)c3cccc(OC)c3n2)cc1 [Compound 5g]	–	> 100	–	> 100	–	Anti-SARS-CoV-2 activity EC50 (SARS-CoV-2; [7]): devoid of antiviral activity; effect on autophagy (LC3-II accumulation), in words [3]: minimal effect on the autophagy
CCCOc1ccc(-c2cc(OCCN3CCNCC3)c3cccc(OC)c3n2)cc1 [Compound 5i]	8 ± 1.3	30.3 ± 0.8	1.7 ± 0.2	7.1 ± 4.2	0.3 ± 0.05	–
CCCOc1ccc(-c2cc(OCCN3CCCC3)c3cccc(OC)c3n2)cc1 [Compound 5j]	–	30.8 ± 0.1	–	> 100	–	–
CCCOc1ccc(-c2cc(OCCN(CC)CC)c3c(OC)cc(OC)cc3n2)cc1 [Compound 6a]	–	6.71 ± 3.5	–	> 100	–	–
CCCOc1ccc(-c2cc(OCCN3CCN(Cc4ccccc4)CC3)c3c(OC)cc(OC)cc3n2)cc1 [Compound 6f]	35.6 ± 0.2	> 100	1.9 ± 0.2	7.9 ± 5.6	2.2 ± 0.7	remaining activity at 30 µM (SARS-CoV-2 nsp12 RdRp): 100%; IC50 [4]: > 30 µM; remaining activity at 30 µM [4]: 55%; VeroE6 cells CC50 (VeroE6 cells): lacked cytotoxicity; IC50 (SARS-CoV-2 nsp13 ATPase; [8]): > 30 µM; helicase ATPase percentage of control (SARS-CoV-2 nsp13 ATPase; [9]): 96%
CCCOc1ccc(-c2cc(OCCN3CCc4cc(OC)c(OC)cc4C3)c3c(OC)cc(OC)cc3n2)cc1 [Compound 6g]	–	> 100	1.5 ± 0.1	8.8 ± 5.6	2.9 ± 0.05	remaining activity at 30 µM (SARS-CoV-2 nsp12 RdRp): 62%; IC50 [4]: 0.42 ± 0.23 µM; IC50 (SARS-CoV-2 nsp13 ATPase; [8]): > 30 µM; helicase ATPase percentage of control (SARS-CoV-2 nsp13 ATPase; [9]): 90%
CCCOc1ccc(-c2cc(OCCN3CCCC3)c3c(OC)cc(OC)cc3n2)cc1 [Compound 6j]	–	16.1 ± 17	–	> 100	–	–
CCCOc1ccc(-c2cc(OCCN3CCc4cc(OC)ccc4C3)c3c(OC)cc(OC)cc3n2)cc1 [Compound 6m, 5,7-Dimethoxy-4-[2-(6-methoxy-3,4-dihydroisoquinolin-2(1H)-yl)ethoxy]-2-(4-propoxyphenyl)quinoline]	–	> 100	–	> 100	–	Anti-SARS-CoV-2 activity EC50 (SARS-CoV-2; [7]): devoid of any activity

Structure (SMILES)	CC50 (in vitro [1]) [µM]	CC50 (in vitro [2]) [µM]	EC50 (HCoV-OC43) [µM]	EC50 (SARS-CoV-2; [5]) [µM]	EC50 (HCoV-229E) [µM]	other results
CCCOc1ccc(-c2cc(OCCN3CCc4ccccc4C3)c3c(OC)cc(OC)cc3n2)cc1 [Compound 6n, 4-[2-(3,4-Dihydroisoquinolin-2(1H)-yl)ethoxy]-5,7-dimethoxy-2-(4-propoxyphenyl)quinoline]	–	> 100	–	> 100	–	Anti-SARS-CoV-2 activity EC50 (SARS-CoV-2; [7]): devoid of any activity
CCCOc1ccc(-c2cc(OCCN3Cc4ccccc4C3)c3c(OC)cc(OC)cc3n2)cc1 [Compound 6o, 4-[2-(1,3-Dihydro-2H-isoindol-2-yl)ethoxy]-5,7-dimethoxy-2-(4-propoxyphenyl)quinoline]	–	> 100	–	> 100	–	Anti-SARS-CoV-2 activity EC50 (SARS-CoV-2; [7]): devoid of any activity
CCCOc1ccc(-c2cc(OCCN(CC)CC)c3c(OC)ccc(OC)c3n2)cc1 [Compound 7a]	9.9 ± 0.8	24.6 ± 0.1	2 ± 0.2	4.6 ± 0.2	0.7 ± 0.3	–
CCCOc1ccc(-c2cc(OCCN3CCCC3)c3c(OC)ccc(OC)c3n2)cc1 [Compound 7j]	8.7 ± 0.8	89.8 ± 2.8	1.8 ± 0.7	11.3 ± 2.1	0.6 ± 0.3	–
CCCOc1ccc(-c2cc(OCCN3CCCCC3)c3c(OC)ccc(OC)c3n2)cc1 [Compound 7k]	95.3 ± 3.3	23.8 ± 5.7	7.7 ± 3.3	2.7 ± 1.9	9.4 ± 3.6	remaining activity at 30 µM (SARS-CoV-2 nsp12 RdRp): 100%; IC50 [4]: 1.41 ± 0.64 µM; IC50 (SARS-CoV-2 nsp13 ATPase; [8]): > 30 µM; helicase ATPase percentage of control (SARS-CoV-2 nsp13 ATPase; [9]): 100%
CCCOc1ccc(-c2cc(OCCN(CC)CC)c3cc(OC)c(OC)cc3n2)cc1 [Compound 8a]	9.2 ± 0.1	70.3 ± 23.7	1.9 ± 0.4	5.1 ± 1.4	1.8 ± 0.4	–
CCCOc1ccc(-c2cc(OCCN3CCCC3)c3cc(OC)c(OC)cc3n2)cc1 [Compound 8j]	–	12.9 ± 4.8	–	9.6 ± 2.2	–	–
CCCOc1ccc(-c2cc(OCCN3CCCCC3)c3cc(OC)c(OC)cc3n2)cc1 [Compound 8k]	12.3 ± 1.1	11.1 ± 1.3	1.6 ± 0.2	2.6 ± 1.4	0.2 ± 0.2	–
CCCOc1ccc(-c2cc(OCCN(CC)CC)c3cc(OC)cc(OC)c3n2)cc1 [Compound 9a]	43.5 ± 5.6	> 100	2.2 ± 0.5	13 ± 10	3.5 ± 2.7	–
CCCOc1ccc(-c2cc(OCCN3CCN(Cc4ccccc4)CC3)c3cc(OC)cc(OC)c3n2)cc1 [Compound 9f]	–	> 100	–	> 100	–	VeroE6 cells CC50 (VeroE6 cells): lacked cytotoxicity
CCCOc1ccc(-c2cc(OCCN3CCc4cc(OC)c(OC)cc4C3)c3cc(OC)cc(OC)c3n2)cc1 [Compound 9g]	–	> 100	–	> 100	–	Anti-SARS-CoV-2 activity EC50 (SARS-CoV-2; [7]): devoid of antiviral activity; effect on autophagy (LC3-II accumulation), in words [3]: minimal effect on the autophagy
CCCOc1ccc(-c2cc(OCCN3CCCC3)c3cc(OC)cc(OC)c3n2)cc1 [Compound 9j]	> 100	> 100	22.7 ± 2.8	5.9 ± 2.4	40 ± 20.8	remaining activity at 30 µM (SARS-CoV-2 nsp12 RdRp): 100%; IC50 [4]: > 30 µM; remaining activity at 30 µM [4]: 57%; IC50 (SARS-CoV-2 nsp13 ATPase; [8]): > 30 µM; helicase ATPase percentage of control (SARS-CoV-2 nsp13 ATPase; [9]): 100%
CCCOc1ccc(-c2cc(OCCN(CC)CC)c3c(OC)c(OC)c(OC)cc3n2)cc1 [Compound 10a]	–	23.8 ± 8.3	–	8.3 ± 1.8	–	–
CCCOc1ccc(-c2cc(C(=O)NCCN(CC)CC)c3ccccc3n2)cc1 [Compound 11l]	–	–	–	> 100	–	Anti-SARS-CoV-2 activity EC50 (SARS-CoV-2; [7]): loss of activity
CCN(CC)CCOc1cc(-c2ccccc2)nc2ccccc12 [Compound 12a]	–	64.7 ± 29.8	–	> 100	–	Anti-SARS-CoV-2 activity EC50 (SARS-CoV-2; [7]): loss of activity
CCN(CC)CCOc1cc(-c2ccc(Cl)s2)nc2ccccc12 [Compound 13a]	–	–	–	> 100	–	Anti-SARS-CoV-2 activity EC50 (SARS-CoV-2; [7]): loss of activity
c1ccc(-c2cc(OCCN3CCCCC3)c3ccccc3n2)nc1 [Compound 14k]	–	–	–	> 100	–	Anti-SARS-CoV-2 activity EC50 (SARS-CoV-2; [7]): loss of activity
N#C[C@@]1(c2ccc3c(N)ncnn23)O[C@H](CO)[C@@H](O)[C@H]1O [GS-441524, reference compound]	> 100	–	–	0.7 ± 0.07	0.9 ± 0.1	–
NC(=O)c1ccc(Oc2ccc(C(N)=O)cc2)cc1 [OUL-355]	–	–	–	–	–	EC50 (SARS-CoV-2; read-out: Anti-SARS-CoV-2 activity EC50, primary screening): > 100 µM
C=CCn1c(S)nnc1CSc1ccccc1[N+](=O)[O-] [SSYA10-001, reference compound]	–	–	–	–	–	helicase ATPase percentage of control (SARS-CoV-2 nsp13 ATPase): >3 (90%) ^d; IC50 (SARS-CoV-2 nsp13 ATPase): > 3 µM
COc1cc(O)c2c(=O)cc(-c3ccc(OCCCN4CCN(C)CC4)c(N)c3)n(C)c2c1 [WRNA10]	–	40	–	–	–	EC50 (SARS-CoV-2; [6]): 10 µM
